Data on 39 compounds can be found in patent publication US9139577B2, “Sulfoximine substituted quinazolines for pharmaceutical compositions” (Boehringer Ingelheim International GmbH, priority 2013, dated 2015).

As a reminder, the IC50 is the concentration at which inhibition is half-maximal.

Sequence of MNK1 (Q9BUB5 other isoform, or with tags, fused parts or gaps): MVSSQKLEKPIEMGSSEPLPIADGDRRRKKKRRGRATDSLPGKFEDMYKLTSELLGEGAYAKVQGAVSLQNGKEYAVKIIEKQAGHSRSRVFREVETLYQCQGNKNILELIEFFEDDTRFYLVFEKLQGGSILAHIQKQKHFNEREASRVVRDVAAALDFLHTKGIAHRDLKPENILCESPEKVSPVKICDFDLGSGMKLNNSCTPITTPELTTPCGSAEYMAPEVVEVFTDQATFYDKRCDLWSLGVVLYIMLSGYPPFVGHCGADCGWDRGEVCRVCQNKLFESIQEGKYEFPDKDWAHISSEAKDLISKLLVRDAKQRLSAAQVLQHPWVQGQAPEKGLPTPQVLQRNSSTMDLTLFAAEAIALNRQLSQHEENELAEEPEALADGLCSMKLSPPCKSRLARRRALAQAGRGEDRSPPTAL
Sequence of MNK2a (Q9HBH9 whole entry): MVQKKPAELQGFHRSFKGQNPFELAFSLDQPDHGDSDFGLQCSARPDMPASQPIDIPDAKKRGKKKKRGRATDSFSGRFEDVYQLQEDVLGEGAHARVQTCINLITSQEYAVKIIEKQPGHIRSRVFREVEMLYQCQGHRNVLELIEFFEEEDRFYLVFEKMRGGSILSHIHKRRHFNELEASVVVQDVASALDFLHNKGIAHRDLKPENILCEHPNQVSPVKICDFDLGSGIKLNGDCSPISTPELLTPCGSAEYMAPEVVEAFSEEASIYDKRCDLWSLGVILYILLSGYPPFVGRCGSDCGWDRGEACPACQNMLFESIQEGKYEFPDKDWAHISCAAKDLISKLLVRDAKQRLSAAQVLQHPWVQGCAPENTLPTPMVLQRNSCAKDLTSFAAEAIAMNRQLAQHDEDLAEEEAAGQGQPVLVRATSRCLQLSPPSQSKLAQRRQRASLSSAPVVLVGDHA

The first test deals with MNK1 (Homo sapiens (Human), UniProt Q9BUB5). Kind of test: MNK1 in vitro kinase assay (Assay 3), Z'-LYTE. It counts as biochemical. Conditions: compound concentration of 1 μM, read-out: MNK1 % INH. An excerpt:
C. MNK1 In vitro Kinase Assay (Assay 3)
MNK1 Data can be obtained from the MNK1 Z′-LYTE® assay. The MNK1 Z′-LYTE® screening protocol and assay conditions are also described on www.invitrogen.com.
The assay is described as follows:
The Z′-LYTE® biochemical assay employs a fluorescence-based, coupled-enzyme format and is based on the differential sensitivity of phosphorylated and non-phosphorylated peptides to proteolytic cleavage. The peptide substrate is labeled with two fluorophores—one at each end—that make up a FRET pair.
In the primary reaction, the kinase transfers the gamma-phosphate of ATP to a single tyrosine, serine or threonine residue in a synthetic FRET-peptide. In the secondary reaction, a site-specific protease recognizes and cleaves non-phosphorylated FRET-peptides. Phosphorylation of FRET-peptides suppresses cleavage by the Development Reagent. Cleavage disrupts FRET between the donor (i.e., coumarin) and acceptor (i.e., fluorescein) fluorophores on the FRET-peptide, whereas uncleaved, phosphorylated FRET-peptides maintain FRET. A ratiometric method, which calculates the ratio (the Emission Ratio) of donor emission to acceptor emission after excitation of the donor fluorophore at 400 nm, is used to quantitate reaction progress, as shown in the equation below.
ASSAY SETUP: The inhibition of kinase activity of MNK1a was assessed using pre-activated GST-MNK1a. The 2×MKNK1 (MNK1) mixture is prepared in 50 mM HEPES pH 7.5, 0.01% BRIJ-35, 10 mM MgCl2, 4 mM MnCl2, 1 mM EGTA, 2 mM DTT.
The Test Compounds are screened in 1% DMSO (final) in the well.
All Peptide/Kinase Mixtures are diluted to a 2× working concentration in the MNK1 Kinase Buffer.
All ATP Solutions are diluted to a 4× working concentration in Kinase Buffer (50 mM HEPES pH 7.5, 0.01% BRIJ-35, 10 mM MgCl2, 1 mM EGTA).
Development Reagent Solution:
The Development Reagent is diluted in Development Buffer
1. 2.5 μL—4× Test Compound
2. 5 μL—2× Peptide/Kinase Mixture
5. 60-minute Kinase Reaction incubation at room temperature
6. 5 μl—Development Reagent Solution
8. 60-minute Development Reaction incubation at room temperature
9. Read on fluorescence plate reader and analyze the data
The following equations are used for each set of data points: […]
Correction for Background Fluorescence: FlSample-FlTCFl Ctl
% Phosphorylation (% Phos): 1−((Emission Ratio×F100%)−C100%)/((C0%−C100%)+[Emission Ratio×(F100%−F0%)])*100%
% Inhibition: 1−(% PhosSample/% Phos0% Inhibition Ctl)*100
Fl=Fluorescence Intensity
C100%=Average Coumarin emission signal of the 100% Phos. Control
C0%=Average Coumarin emission signal of the 0% Phos. Control
F100%=Average Fluorescein emission signal of the 100% Phos. Control
F0%=Average Fluorescein emission signal of the 0% Phos. Control
SelectScreen® Kinase Profiling Service uses XLfit from IDBS.
For the compound `CS(C)(=O)=Nc1cc(C(F)(F)F)c2c(Nc3ccc(F)cc3OC(CF)CF)ncnc2c1` [Example 1.002], the inhibition at 1 µM is 59%.

For `C[C@@H](Oc1cc(F)ccc1Nc1ncnc2cc(N=S(C)(C)=O)cc(Cl)c12)C(F)(F)F` [Example 1.003], the inhibition at 1 µM was determined as 95%. The same measure, in the same setting: the result for `O=S1(=Nc2cc(C(F)(F)F)c3c(Nc4ccc(F)cc4OC(CF)CF)ncnc3c2)CCCC1` [Example 1.004] reads 79%. On the same count and under the same terms, the figure for `CCS(C)(=O)=Nc1cc(Cl)c2c(Nc3cccnc3O[C@H](C)c3cc(C)no3)ncnc2c1` (stereo partly shown) [Example 1.005] is 98%; for `Cc1cc(N=S(C)(C)=O)cc2ncnc(Nc3ccc(F)cc3O[C@H](C)C(=O)N(C)CCc3ccccc3)c12` [Example 4.037] it is 45%. Still for that read-out and setting: the figure for `COC1CCN(C(=O)[C@@H](C)Oc2cc(F)ccc2Nc2ncnc3cc(N=S(C)(C)=O)cc(C)c23)CC1` [Example 4.073] is 70%.

The target in the next test is MNK2a (Homo sapiens (Human), UniProt Q9HBH9). The test can be described thus: MNK2a in vitro kinase assay (Assay 2), ADP-Glo. It counts as biochemical. Conditions: read-out: MNK2 IC50. The protocol:
B. MNK2a In vitro Kinase Assay (Assay 2)
ASSAY SETUP: The inhibition of kinase activity of MNK2a was assessed using pre-activated GST-MNK2a. The white, 384-well OptiPlate F plates were purchased from PerkinElmer. The ADP-Glo Kinase Assay (including ultra pure ATP) was purchased from Promega (V9103). Activated MNK2a was obtained as described in WO2011/104340. […] ID No. 5 of WO 2011/104340 by the C-terminal —CONH2 group, was purchased from Thermo Fisher Scientific. All other materials were of highest grade commercially available. Compounds are tested in either serial dilutions or single dose concentrations. The compound stock solutions are 10 mM in 100% DMSO The serial compound dilutions are prepared in 100% DMSO followed by 1:27.3 intermediate dilution in assay buffer. The final DMSO concentration in assay will be <3%. In the 384-well plates 3 μl of test compound from the intermediate dilution is mixed with 4 μl of the activated MNK2 enzyme (final concentration of 10 nM) and 4 μl of the peptide (final concentration of 25 μM)/ultra pure ATP (final concentration of 20 μM), all dissolved in assay buffer. This step is followed by an incubation time of 90 min, then 10 μl of ADP Glo reagent are added, followed by 40 min of incubation. Then 20 μl of kinase detection reagent are admixed. The plates are sealed and after an incubation period of 30 min, the luminescence signal is measured in an Envision reader to determine the amount of produced ADP. All incubation steps are performed at room temperature. The assay buffer consists of 20 mM HEPES, 2 mM DTT, 0.01% BSA, 20 mM MgCl2 and 0.1% Pluronic F-127.
The luminescent signal generated is proportional to the ADP concentration produced and is correlated with activated MNK2 activity. The analysis of the data is performed by the calculation of the percentage of ATP consumption of activated MNK2 in the presence of the test compound compared to the consumption of ATP in the presence of activated MNK2 without compound. (RLU(sample)−RLU(low control))*100/(RLU(high value)−RLU(low control)) [RLU=relative luminescence units]
[…] values based on dose response curves are calculated with the AssayExplorer software.
On the technique in general: ADP-Glo turns the ADP formed in a reaction into a luminescent signal.
For `CS(C)(=O)=Nc1cc(C(F)(F)F)c2c(Nc3ccc(F)cc3OC(CF)CF)ncnc2c1` [Example 1.002], the half-maximal inhibitory concentration (IC50) is 6 nM. On the same count and under the same terms, the result for `C[C@@H](Oc1cc(F)ccc1Nc1ncnc2cc(N=S(C)(C)=O)cc(Cl)c12)C(F)(F)F` [Example 1.003] reads 1 nM. For `O=S1(=Nc2cc(C(F)(F)F)c3c(Nc4ccc(F)cc4OC(CF)CF)ncnc3c2)CCCC1` [Example 1.004], the IC50 amounted to 3 nM.

Consider `CCS(C)(=O)=Nc1cc(Cl)c2c(Nc3cccnc3O[C@H](C)c3cc(C)no3)ncnc2c1` (stereo partly shown) [Example 1.005], for which the IC50 is 2 nM. On the same count and under the same terms, the figure for `C[C@@H](Oc1cc(F)ccc1Nc1ncnc2cc(N=S(C)(C)=O)cc(F)c12)C(=O)NC(CF)CF` [Example 4.121] is 5 nM; for `Cc1cc(N=S2(=O)CCC2)cc2ncnc(Nc3ccc(Cl)cc3O[C@H](C)C(=O)NCC(F)(F)F)c12` [Example 4.122] it is 1 nM; for `C[C@@H](Oc1cc(F)ccc1Nc1ncnc2cc(N=S3(=O)CCC3)cc(F)c12)C(=O)NCC(F)F` [Example 4.123] it is 3 nM.

Take `Cc1cc(N=S2(=O)CCC2)cc2ncnc(Nc3ccc(Cl)nc3O[C@H](C)C(=O)NCC(F)(F)F)c12` [Example 4.124]: the IC50 amounted to 1 nM. On the same count and under the same terms, the figure for `Cc1cc(N=S2(=O)CCC2)cc2ncnc(Nc3ccc(Cl)cc3O[C@H](C)C(=O)NC(C)C(F)F)c12` (stereo partly shown) [Example 4.125] is 1 nM. Turning to `CC(NC(=O)[C@@H](C)Oc1cc(F)ccc1Nc1ncnc2cc(N=S3(=O)CCC3)cc(Cl)c12)C(F)F` (stereo partly shown) [Example 4.126], the IC50 amounted to 2 nM. Still for that read-out and setting: the result for `Cc1cc(N=S(C)(C)=O)cc2ncnc(Nc3ccc(F)cc3O[C@H](C)C(=O)N[C@@H](C)C(F)(F)F)c12` [Example 4.127] reads 2 nM. Same read-out and setting: the figure for `C[C@@H](Oc1cc(F)ccc1Nc1ncnc2cc(N=S3(=O)CCC3)cc(F)c12)C(=O)NC(CF)CF` [Example 4.128] is 2 nM.

Consider `C[C@@H](Oc1cc(F)ccc1Nc1ncnc2cc(N=S3(=O)CCC3)cc(F)c12)C(=O)NCC(F)(F)C(F)(F)F` [Example 4.129], for which the half-inhibitory concentration (IC50) was 2 nM. For the compound `CC(NC(=O)[C@@H](C)Oc1cc(F)ccc1Nc1ncnc2cc(N=S3(=O)CCC3)cc(F)c12)C(F)F` (stereo partly shown) [Example 4.130], the IC50 was 3 nM. For `Cc1cc(N=S2(=O)CCC2)cc2ncnc(Nc3ccc(F)cc3O[C@H](C)C(=O)NC(CF)CF)c12` [Example 4.131], the IC50 turned out to be 1 nM. Consider `Cc1cc(N=S2(=O)CCC2)cc2ncnc(Nc3ccc(F)cc3O[C@H](C)C(=O)NC(C)C#N)c12` (stereo partly shown) [Example 4.132], for which the IC50 was 1 nM.

On to `C[C@@H](Oc1cc(F)ccc1Nc1ncnc2cc(N=S(C)(C)=O)cc(F)c12)C(=O)NCC(F)F` [Example 4.133], for which the IC50 turned out to be 4 nM.

Turning to `CC(NC(=O)[C@@H](C)Oc1cc(F)ccc1Nc1ncnc2cc(N=S(C)(C)=O)cc(Cl)c12)C(F)F` (stereo partly shown) [Example 4.134], the half-maximal inhibitory concentration (IC50) came to 3 nM. Same read-out and setting: the figure for `C[C@H](NC(=O)[C@@H](C)Oc1cc(F)ccc1Nc1ncnc2cc(N=S(C)(C)=O)cc(Cl)c12)C(F)(F)F` [Example 4.135] is 2 nM; for `C[C@@H](C#N)NC(=O)[C@@H](C)Oc1cc(F)ccc1Nc1ncnc2cc(N=S3(=O)CCC3)cc(Cl)c12` [Example 4.137] it is 1 nM; for `Cc1cc(N=S2(=O)CCC2)cc2ncnc(Nc3ccc(F)cc3O[C@H](C)C(=O)NCC(F)(F)F)c12` [Example 4.139] it is 1 nM.

As for `Cc1cc(N=S2(=O)CCC2)cc2ncnc(Nc3ccc(Cl)nc3O[C@H](C)C(=O)N[C@@H](C)C#N)c12` [Example 4.140], the IC50 was determined as 1 nM. Same read-out and setting: the figure for `Cc1cc(N=S2(=O)CCC2)cc2ncnc(Nc3ccc(F)cc3O[C@H](C)C(=O)NCC(F)F)c12` [Example 4.141] is 1 nM; for `Cc1cc(N=S(C)(C)=O)cc2ncnc(Nc3ccc(Cl)cc3O[C@H](C)C(=O)NCC(F)F)c12` [Example 4.142] it is 2 nM; for `C[C@H](NC(=O)[C@@H](C)Oc1cc(F)ccc1Nc1ncnc2cc(N=S3(=O)CCC3)cc(C(F)F)c12)C(F)(F)F` [Example 4.143] it is 2 nM. The same measure, in the same setting: the result for `Cc1cc(N=S2(=O)CCC2)cc2ncnc(Nc3ccc(F)cc3O[C@H](C)C(=O)NCCCF)c12` [Example 4.144] reads 2 nM; that for `Cc1cc(N=S2(=O)CCC2)cc2ncnc(Nc3ccc(Cl)cc3O[C@H](C)C(=O)N[C@H](C)C(F)(F)F)c12` [Example 4.145], 2 nM; that for `CC(NC(=O)[C@@H](C)Oc1cc(F)ccc1Nc1ncnc2cc(N=S3(=O)CCC3)cc(C(F)F)c12)C(F)F` (stereo partly shown) [Example 4.146], 4 nM. The same measure, in the same setting: the figure for `Cc1cc(N=S2(=O)CCC2)cc2ncnc(Nc3ccc(Cl)cc3O[C@H](C)C(=O)N[C@@H](C)C#N)c12` [Example 4.147] is 3 nM; for `COC(=O)N1CCS(=O)(=Nc2cc(C)c3c(Nc4ccc(F)cc4O[C@H](C)c4cc(C)no4)ncnc3c2)CC1` [Example 5.013] it is 2 nM. `COc1cc(N=S2(=O)CCC2)cc2ncnc(Nc3ccc(F)cc3O[C@H](C)C(=O)N[C@@H](C)C(F)(F)F)c12` [Example 6.001]: the IC50 amounted to 5 nM. In the case of `COc1cc(N=S2(=O)CCC2)cc2ncnc(Nc3ccc(F)cc3O[C@H](C)C(=O)NCC(F)F)c12` [Example 6.002], the IC50 was found to be 2 nM. Same read-out and setting: the result for `CCOc1cc(N=S2(=O)CCC2)cc2ncnc(Nc3ccc(F)cc3O[C@H](C)C(=O)NCC(F)(F)F)c12` [Example 6.003] reads 4 nM; that for `COc1cc(N=S(C)(C)=O)cc2ncnc(Nc3cccnc3O[C@H](C)C(=O)NCC(F)(F)F)c12` [Example 6.004], 3 nM.

With `Cc1cc(N=S(C)(C)=O)cc2ncnc(Nc3ccc(F)cc3O[C@H](CO)C(=O)NCC(F)(F)F)c12` [Example 7.011], the IC50 was 3 nM. On the same count and under the same terms, the figure for `Cc1cc(N=S(C)(C)=O)cc2ncnc(Nc3ccc(F)cc3O[C@H](CO)C(N)=O)c12` [Example 7.012] is 46 nM. In the case of `Cc1cc(N=S(C)(C)=O)cc2ncnc(Nc3ccc(F)cc3O[C@H](CF)C(=O)NCC(F)(F)F)c12` [Example 7.013], the IC50 was 4 nM.
